Patent publication US20110281869A1, “TETRAHYDROISOQUINOLINES AS ANTIMALARIAL AGENTS” (priority 2008, published 2011)
Like-named read-outs stand apart in the source and are kept apart here.

Test system: P. falciparum K1
Assay: Plasmodium falciparum in vitro assay ([3H] hypoxanthine incorporation)
Format: cell-based
Method: In vitro antimalarial activity: Plasmodium falciparum in vitro assay In vitro activity against erythrocytic stages of P. falciparum is determined using a [^3H] hypoxanthine incorporation assay. One strain resistant to chloroquine and pyrimethamine (P. falciparum K1) is used in the assays, and all test compounds are compared for activity with the standard drugs chloroquine (sigma C6628) and artemisinin (sigma-36, 159-3). Compounds are diluted in DMSO to 1 mM and added to parasite cultures incubated in RPMI 1640 medium without hypoxanthine, supplemented with HEPES (5.94 g/L), NaHCO3 (2.1 g/L), neomycin (100 U/mL), Albumax (5 g/L) and washed human red cells at 2.5% hematocrit (0.3% parasitaemia). Seven serial doubling dilutions of each drug are prepared in 96-well microtitre plates and incubated in a humidifying atmosphere at 37° C.; 4% CO2, 3% O2, 93% N2.
After 48 h, 50 μl of [^3H] hypoxanthine (0.5 μCi) is added to each well of a plate. The plates are incubated for a further 24 h under the same conditions. The plates are then harvested with a Betaplate cell harvester (Wallac) and washed with distilled water. The dried filters are inserted into a plastic foil with 10 mL of scintillation fluid, and counted in a Betaplate liquid scintillation counter. IC50 values are calculated from sigmoidal inhibition curves using Microsoft Excel.

[1] = Plasmodium falciparum, erythrocytic stages, strain K1 resistant to chloroquine and pyrimethamine, human red cells, read-out: IC50 (nM) on K1
[2] = erythrocytic stages, strain K1 resistant to chloroquine and pyrimethamine, human red cells, read-out: IC50 (nM) on K1

Row | SMILES | IC50 [1] [nM] | further results
1 | Cn1cc(CC(C(=O)N2CCc3ccccc3C2)N(Cc2ccc(-c3ccncc3)cc2)C(=O)C=Cc2ccc(C(F)(F)F)cc2)cn1 (racemic) [Example 80, rac-N-[2-(3,4-Dihydro-1H-isoquinolin-2-yl)-1-(1-methyl-1H-pyrazol-4-ylmethyl)-2-oxo-ethyl]-N-(4-pyridin-4-yl-benzyl)-3-(4-trifluoromethyl-phenyl)-acrylamide] | 107 | –
2 | Cn1ccc(CC(C(=O)N2CCc3ccccc3C2)N(Cc2ccc(-c3ccncc3)cc2)C(=O)C=Cc2ccc(C(F)(F)F)cc2)n1 (racemic) [Example 82, rac-N-[2-(3,4-Dihydro-1H-isoquinolin-2-yl)-1-(1-methyl-1H-pyrazol-3-ylmethyl)-2-oxo-ethyl]-N-(4-pyridin-4-yl-benzyl)-3-(4-trifluoromethyl-phenyl)-acrylamide] | 24 | –
3 | Cn1nccc1CC(C(=O)N1CCc2ccccc2C1)N(Cc1ccc(-c2ccncc2)cc1)C(=O)C=Cc1ccc(C(F)(F)F)cc1 (racemic) [Example 84, rac-N-[2-(3,4-Dihydro-1H-isoquinolin-2-yl)-1-(2-methyl-2H-pyrazol-3-ylmethyl)-2-oxo-ethyl]-N-(4-pyridin-4-yl-benzyl)-3-(4-trifluoromethyl-phenyl)-acrylamide] | 84 | –
4 | O=C(C(Cc1ncccn1)N(Cc1ccc(-c2ccncc2)cc1)C(=O)C=Cc1ccc(C(F)(F)F)cc1)N1CCc2ccccc2C1 (racemic) [Example 86, rac-N-[2-(3,4-Dihydro-1H-isoquinolin-2-yl)-2-oxo-1-pyrimidin-2-ylmethyl-ethyl]-N-(4-pyridin-4-yl-benzyl)-3-(4-trifluoromethyl-phenyl)-acrylamide] | 162 | –
5 | O=C(C(Cc1ccon1)N(Cc1ccc(-c2ccncc2)cc1)C(=O)C=Cc1ccc(C(F)(F)F)cc1)N1CCc2ccccc2C1 (racemic) [Example 87, rac-N-[2-(3,4-Dihydro-1H-isoquinolin-2-yl)-1-isoxazol-3-ylmethyl-2-oxo-ethyl]-N-(4-pyridin-4-yl-benzyl)-3-(4-trifluoromethyl-phenyl)-acrylamide] | 194 | –
6 | C[C@@H]1CC[C@H]2[C@@H](C)C(=O)O[C@@H]3O[C@@]4(C)CC[C@@H]1[C@]32OO4 [Artemisinin, artemisinin, reference compound] | 2 | –
7 | CCN(CC)CCCC(C)Nc1ccnc2cc(Cl)ccc12 (stereo not shown) [Chloroquine, chloroquine, reference compound] | – | IC50 (Plasmodium falciparum, K1, read-out: IC50 (nM) on K1): 300 nM
8 | O=C([C@H](Cc1ccccc1)N(Cc1ccc(-c2ccccn2)cc1)C(=O)/C=C/c1ccc(C(F)(F)F)cc1)N1CCc2ccccc2C1 [Example 1, (S)—N-[1-Benzyl-2-(3,4-dihydro-1H-isoquinolin-2-yl)-2-oxo-ethyl]-N-(4-pyridin-2-yl-benzyl)-3-(trifluoromethyl-phenyl)-acrylamide] | 3.5 | –
9 | O=C([C@H](Cc1ccccc1)N(Cc1ccc(-c2cncnc2)cc1)C(=O)C=Cc1ccc(C(F)(F)F)nc1)N1CCc2ccccc2C1 [Example 4, (S)—N-[1-Benzyl-2-(3,4-dihydro-1H-isoquinolin-2-yl)-2-oxo-ethyl]-N-(4-pyrimidin-5-yl-benzyl)-3-(6-trifluoromethyl-pyridin-3-yl)-acrylamide] | 5 | –
10 | O=C([C@H](Cc1ccccc1)N(Cc1ccccn1)C(=O)C=Cc1ccc(C(F)(F)F)cc1)N1CCc2ccccc2C1 [Example 6, (S)—N-[1-Benzyl-2-(3,4-dihydro-1H-isoquinolin-2-yl)-2-oxo-ethyl]-N-pyridin-2-ylmethyl-3-(4-trifluoromethyl-phenyl)-acrylamide] | 25 | –
11 | O=C([C@H](Cc1ccccc1)N(Cc1ccc(-c2ccccn2)cc1)C(=O)C=Cc1ccc(C(F)(F)F)cc1)N1CCc2cc(F)ccc2C1 [Example 10, (S)—N-[1-Benzyl-2-(6-fluoro-3,4-dihydro-1H-isoquinolin-2-yl)-2-oxo-ethyl]-N-(4-pyridin-2-yl-benzyl)-3-(4-trifluoromethyl-phenyl)-acrylamide] | 14 | –
12 | COc1cc(C=CC(=O)N(Cc2ccc(-c3ccccn3)cc2)[C@@H](Cc2ccccc2)C(=O)N2CCc3ccccc3C2)cc(OC)c1 [Example 14, (S)—N-[1-Benzyl-2-(3,4-dihydro-1-H-isoquinolin-2-yl)-2-oxo-ethyl]-3-(3,5-dimethoxy-phenyl)-N-(4-pyridin-2-yl-benzyl)-acrylamide] | – | IC50 [2]: 18 nM
13 | O=C([C@H](Cc1ccccc1)N(Cc1ccc(-c2ccccn2)cc1)C(=O)C=Cc1cccc(Cl)c1Cl)N1CCc2ccccc2C1 [Example 25, (S)—N-[1-Benzyl-2-(3,4-dihydro-1-H-isoquinolin-2-yl)-2-oxo-ethyl]-3-(2,3-dichloro-phenyl)-N-(4-pyridin-2-yl-benzyl)-acrylamide] | – | IC50 [2]: 13 nM
14 | Cc1ccc(C=CC(=O)N(Cc2ccc(-c3ccccn3)cc2)[C@@H](Cc2ccccc2)C(=O)N2CCc3ccccc3C2)cc1 [Example 32, (S)—N-[1-Benzyl-2-(3,4-dihydro-1-H-isoquinolin-2-yl)-2-oxo-ethyl]-N-(4-pyridin-2-yl-benzyl)-3-p-tolyl-acrylamide] | – | IC50 [2]: 7.5 nM
15 | CN(C)c1ccc(C=CC(=O)N(Cc2ccc(-c3ccccn3)cc2)[C@@H](Cc2ccccc2)C(=O)N2CCc3ccccc3C2)cc1 [Example 38, (S)—N-[1-Benzyl-2-(3,4-dihydro-1-H-isoquinolin-2-yl)-2-oxo-ethyl]-3-(4-dimethylamino-phenyl)-N-(4-pyridin-2-yl-benzyl)-acrylamide] | – | IC50 [2]: 10 nM
16 | Cc1nc(C)c(C=CC(=O)N(Cc2ccc(-c3ccccn3)cc2)[C@@H](Cc2ccccc2)C(=O)N2CCc3ccccc3C2)s1 [Example 51, (S)—N-[1-Benzyl-2-(3,4-dihydro-1H-isoquinolin-2-yl)-2-oxo-ethyl]-3-(2,4-dimethyl-thiazol-5-yl)-N-(4-pyridin-2-yl-benzyl)-acrylamide] | 17 | –
17 | Cc1ccc(C=CC(=O)N(Cc2ccc(-c3ccccn3)cc2)[C@@H](Cc2ccccc2)C(=O)N2CCc3ccccc3C2)cn1 [Example 59, (S)—N-[1-Benzyl-2-(3,4-dihydro-1H-isoquinolin-2-yl)-2-oxo-ethyl]-3-(6-methyl-pyridin-3-yl)-N-(4-pyridin-2-yl-benzyl)-acrylamide] | 14 | –
18 | COc1ccc(C=CC(=O)N(Cc2ccc(-c3ccccn3)cc2)[C@@H](Cc2ccccc2)C(=O)N2CCc3ccccc3C2)cn1 [Example 62, (S)—N-[1-Benzyl-2-(3,4-dihydro-1H-isoquinolin-2-yl)-2-oxo-ethyl]-3-(6-methoxy-pyridin-3-yl)-N-(4-pyridin-2-yl-benzyl)-acrylamide] | 10 | –
19 | Cc1c(C=CC(=O)N(Cc2ccc(-c3ccccn3)cc2)[C@@H](Cc2ccccc2)C(=O)N2CCc3ccccc3C2)cnn1C [Example 65, (S)—N-[1-Benzyl-2-(3,4-dihydro-1H-isoquinolin-2-yl)-2-oxo-ethyl]-3-(1,5-dimethyl-1H-pyrazol-4-yl)-N-(4-pyridin-2-yl-benzyl)-acrylamide] | 10 | –
20 | COc1ccc2c(c1)CN(C(=O)[C@H](Cc1ccccc1)N(Cc1ccc(-c3ccccn3)cc1)C(=O)C=Cc1ccc(C(F)(F)F)cc1)CC2 [Example 69, (S)—N-[1-Benzyl-2-(7-methoxy-3,4-dihydro-1H-isoquinolin-2-yl)-2-oxo-ethyl]-N-(4-pyridin-2-yl-benzyl)-3-(4-trifluoromethyl-phenyl)-acrylamide] | 12 | –
21 | O=C([C@H](Cc1ccccc1)N(Cc1ccc(-c2ccccn2)cc1)C(=O)C=Cc1ccc(C(F)(F)F)cc1)N1CCc2c(F)cccc2C1 [Example 74, (S)—N-[1-Benzyl-2-(5-fluoro-3,4-dihydro-1H-isoquinolin-2-yl)-2-oxo-ethyl]-N-(4-pyridin-2-yl-benzyl)-3-(4-trifluoromethyl-phenyl)-acrylamide] | 11 | –
22 | O=C([C@H](Cc1ccccc1)N(Cc1ccc(-c2ccccn2)cc1)C(=O)C=Cc1ccc(C(F)(F)F)nc1)N1CCc2cc(F)ccc2C1 [Example 78, (S)—N-[1-Benzyl-2-(6-fluoro-3,4-dihydro-1H-isoquinolin-2-yl)-2-oxo-ethyl]-N-(4-pyridin-2-yl-benzyl)-3-(6-trifluoromethyl-pyridin-3-yl)-acrylamide] | 52 | –
23 | COc1ccc(C=CC(=O)N(Cc2ccc(-c3ncccn3)cc2)[C@@H](Cc2ccccc2)C(=O)N2CCc3ccccc3C2)cn1 [Example 93, (S)—N-[1-Benzyl-2-(3,4-dihydro-1H-isoquinolin-2-yl)-2-oxo-ethyl]-3-(6-methoxy-pyridin-3-yl)-N-(4-pyrimidin-2-yl-benzyl)-acrylamide] | 19 | –
24 | Cc1c(C=CC(=O)N(Cc2ccc(-c3ncccn3)cc2)[C@@H](Cc2ccccc2)C(=O)N2CCc3ccccc3C2)cnn1C [Example 99, (S)—N-[1-Benzyl-2-(3,4-dihydro-1H-isoquinolin-2-yl)-2-oxo-ethyl]-3-(1,5-dimethyl-1H-pyrazol-4-yl)-N-(4-pyrimidin-2-yl-benzyl)-acrylamide] | 29 | –
25 | Cc1ncsc1C=CC(=O)N(Cc1ccc(-c2ncccn2)cc1)[C@@H](Cc1ccccc1)C(=O)N1CCc2ccccc2C1 [Example 104, (S)—N-[1-Benzyl-2-(3,4-dihydro-1H-isoquinolin-2-yl)-2-oxo-ethyl]-3-(4-methyl-thiazol-5-yl)-N-(4-pyrimidin-2-yl-benzyl)-acrylamide] | 84 | –
